Read-outs that look alike come from different tables or passages of the source. Each block holds one compound with its values, some of them ahead of it.
Key:
[1] = early institution within 12 hours of surgery; cited from earlier work
purified platelets = experiment: ADP-induced platelet aggregation by light transmission aggregometry (LTA), EC50 for ADP; format: cell-based, human; conditions: LTA with fibrinogen
Method: Purified platelets were suspended to a final concentration of 400,000/μl in platelet buffer containing 145 mM NaCl, 10 mM Hepes, 0.5 mM Na2HPO4, 5 mM KCl, 2 mM MgCl2, 1 mM CaCl2), 0.10% glucose, pH 7.4. […] Human fibrinogen (final concentration 200 μg/ml) was added to the platelet suspensions just prior to activation. Aggregation was assessed using a Chronolog Lumi-Aggregometer (model 540 VS, Chronolog, Havertown, PA) and permitted to proceed for 6 min after the addition of agonist. The results are reported as maximum percent change in light transmittance from baseline with platelet buffer used as a reference.
We next determine the functional response of platelets from neonates as well as older patients with congenital heart disease to ADP stimulation. This was accomplished by calculating EC50 values for the agonist using isolated platelets in fibrinogen-supplemented buffer.

[2] = tested on: human platelet thrombus formation; experiment: Human platelet thrombus formation in laser-injured arterioles of avatar mice; format: in vivo, VWFHA1 mutant mice; conditions: for platelet accumulation at sites of arteriole injury: platelets from neonates and older pediatric CHD patients; for Contrast estimate (mean difference in thrombus size pre- and post-administration): linear mixed model
Method: Administration of anesthesia, insertion of venous and arterial catheters, fluorescent labeling of human platelets, and surgical preparation of the cremaster muscle in 12 week old male VWF HA1 mice have been previously described.
Human platelets (700K/μL) were continuously infused (25 μl/min) through a catheter placed in the ipsilateral femoral artery 2 min prior to and during laser-induced injury to ensure a level of circulating cells equivalent to humans.^33 Injury to the vessel wall of arterioles (40-65 μm diameter) was performed with a pulsed nitrogen dye laser applied through a 20× water-immersion Olympus objective. Human platelet-vessel wall interactions were visualized by fluorescence microscopy using a system equipped with a Yokogawa CSU-22 spinning disk confocal scanner, iXON EM camera, and 488-nm laser line (Revolution XD, Andor Technology, South Windsor, CT) to detect Calcein-AM-labeled cells, respectively. The extent of thrombus formation was assessed for 3 min after injury and the maximal area (μm^2) of coverage determined by off-line analysis (ImagePro Plus, Media Cybernetics, Bethesda, MD).
A minimum of 5 mice per patient group were studied (2 and 4 arterial segments pre and post-cangrelor per mouse, respectively).
To compare mean thrombus areas between different treatment groups, we fit linear mixed models with random intercepts for each study animal. Linear mixed models permit comparison of mean differences between treatment groups while also considering the effect of the clustering of the data on the SEs resulting from multiple measurements obtained from each mouse used in intravital studies. In the case of platelet aggregation studies, values are presented as mean±SEM. A 2-tailed Student t test was used for comparisons between control conditions and treatments. Differences with values of P<0.05 were considered statistically significant.

integrin αIIbβ3 = target: T1, integrin αIIbβ3 (Homo sapiens, UniProt P05106+P08514); experiment: ADP-induced firm adhesion of platelets to surface-immobilized VWF in flow; format: cell-based; conditions: platelets from pediatric CHD patients or healthy adults
T1 construct: the platelet integrin receptor αIIbβ3 that stabilizes adhesion by engaging with ligands such as VWF; endogenous in cells; host or cells: platelets from pediatric patients with CHD or healthy adults
Method: A parallel-plate flow chamber was used to assess platelet accumulation on surface-immobilized plasma VWF at a wall shear rate of 1,600s-1.29, 31 In brief, a polyclonal anti-VWF antibody was absorbed overnight (4° C.) to a six-well tissue culture plate. Subsequently, the plate was washed and nonspecific interactions blocked by the addition of TBS containing 3% BSA, pH 7.4 (30 min, 37° C.). Human or murine (VWF^HA1) plasma obtained from heparinized whole blood was added and the plates placed at 37° C. for an additional hour prior to use. Citrated whole blood was then perfused over the reactive substrate for 3 minutes, followed by the addition of platelet buffer lacking CaCl2 for 1 min. The number of platelets attached per unit area was determined by offline analysis (ImagePro Plus, Media Cybernetics, Bethesda, MD) of recorded digital images. For GPIbα inhibition studies, mAb 6D1 (10 μg/ml) was added to anticoagulated human blood for 10 min before use.
Although GPIbα initiates platelet deposition at arterial shear rates, this adhesive interaction is labile in nature permitting platelets to translocate in response to forces generated by flowing blood. Ultimately it is the platelet integrin receptor αIIbβ3 that stabilizes adhesion by engaging with ligands such as VWF in response to ADP and/or thrombin.

[3] = tested on: platelets in PPACK-treated whole blood; experiment: Multichannel microfluidic device, platelet accumulation on collagen under flow; format: cell-based; conditions: Homo sapiens, read-out: effective IC50 (surface fluorescence at 300 s)
Method: Microfluidic devices with 8 individual channels (250 μm wide×60 μm-high) were fabricated in polydimethylsiloxane (PDMS) as previously described. The device was reversibly vacuum-sealed to a glass slide with its flow channels aligned perpendicularly to a patterned type 1 collagen surface (1 mg/ml). To visualize platelet accumulation over time, an Alexa Fluor 488 conjugated, non-function blocking mouse anti-human CD61 (GPIIb/IIIa) antibody was added (1:50 ratio) 7 min prior to performing experiments (0.125 μg/ml final concentration).
Whole blood from neonates with single ventricle pathology or healthy adults was perfused over the prothrombotic surface at an initial wall shear rate of 100 s^−1 by withdrawal from a single outlet into a syringe pump (Harvard Apparatus Pump 11 Elite, Holliston, MA). Platelet accumulation was visualized (10× objective lens) using an automated inverted microscope system (DMI6000, Leica) equipped with a CCD camera (DFC365FX, Leica). A custom stage insert held three microfluidic devices allowing replicate testing of four conditions. Images were captured in 30 s intervals for a total of 5 min. Platelet fluorescence intensities, which are directly proportional to the total platelet mass were measured and analyzed with Image J software (Image J; NIH, Bethesda, MD). The center 65% of the prothrombotic region was selected for analysis to avoid edge effects. […]

platelet aggregation = experiment: Phase 1 PK/PD clinical trial in post-operative neonates with CHD, LTA and microfluidics; format: in vivo, human; conditions: infusion 0.5 or 0.25 μg/kg/min for one hour; post-operative neonates with shunt
Source text: FIG. 7. Pharmacodynamic properties of cangrelor administered to neonates with CHD in the early post-operative period. A phase 1 clinical trial is currently being conducted to assess the drug plasma levels and effects on platelet aggregation using LTA and microfluidics. […] B, microfluidic results under the same conditions as outlined for LTA.

[4] = adults with coronary artery disease, cited from earlier work
[5] = cited from earlier work

Compound: CC(=O)Oc1ccccc1C(=O)O [aspirin]
risk of shunt thrombosis and death [1]: reduced the risk of shunt thrombosis and death

EC50 (purified platelets; platelets from CHD patients 0-28 days): 3.4 ± 0.1 µM | EC50 (purified platelets; platelets from CHD patients 1-10 years): 2.9 ± 0.1 µM | EC50 (purified platelets; platelets from CHD patients 11-18 years): 3.2 ± 0.2 µM
Compound: Nc1ncnc2c1ncn2[C@@H]1O[C@H](COP(=O)(O)OP(=O)(O)O)[C@@H](O)[C@H]1O [ADP]
EC50 (purified platelets; platelets from healthy adults): 3.2 ± 0.2 µM

firm adhesion of platelets to surface-immobilized VWF in response to ADP (integrin αIIbβ3): prevent the firm adhesion
Compound: abciximab: function blocking antibody to integrin αIIbβ3
platelet accumulation at sites of arteriole injury [2]: nearly abrogated platelet-vessel wall interactions | abrogated platelet accumulation ([2]; platelets from pediatric cardiac patients, laser-injured arterioles, P<0.0001): > 90%

IC50 ([3]; whole blood from neonates with CHD (single ventricle physiology)): 0.00069 µM
Compound: CSCCNc1nc(SCCC(F)(F)F)nc2c1ncn2[C@@H]1O[C@H](COP(=O)(O)OP(=O)(O)C(Cl)(Cl)P(=O)(O)O)[C@@H](O)[C@H]1O [cangrelor]
IC50 ([3]; whole blood from healthy adults): 0.00095 µM | Contrast estimate (mean difference in thrombus size pre- and post-administration) ([2]; platelets from adults): 3,501 μm2 | Contrast estimate (mean difference in thrombus size pre- and post-administration) ([2]; platelets from age group 0-28 days): 2,261 μm2 | Contrast estimate (mean difference in thrombus size pre- and post-administration) ([2]; platelets from age group 1-10 years): 3,314 μm2 | Contrast estimate (mean difference in thrombus size pre- and post-administration) ([2]; platelets from age group 11-18 years): 3,475 μm2 | reduced thrombus size ([2]; platelets from neonates and older CHD patients, all cases, doses recommended for PCI, P<0.0001): > 45% | platelet accumulation at sites of arteriole injury [2]: did not completely prevent platelet accumulation | reduction in thrombus size ([2]; platelets from pediatric cardiac patients, 30 μg/kg bolus then 4 μg/kg/min infusion, P<0.0001): ~45% | effect on platelet aggregation assessed by LTA and microfluidics (platelet aggregation): efficacy and rapid reversibility | risk of severe bleeding ([4]; PCI): without significantly increasing the risk of severe bleeding | ischemic events during PCI [4]: significantly reduce ischemic events | restoration of hemostasis, as assessed by bleeding time ([5]; after cessation of infusion of a supratherapeutic dose): ≤ 10 min | full platelet function recovery as determined by response to ADP ([5]; after cessation of infusion): ≤ 60 min

From patent publication US12502400B2, “Method of preventing of systemic-to-pulmonary-artery shunt thrombosis” (Chiesi Farmaceutici S.p.A., priority 2017, dated 2025)
